According to patent US4123546A, “Antidepressant compounds” (E. I. Du Pont de Nemours and Company, priority 1977, dated 1978):
Structures can show the parent of a compound that is named as a salt. Where two headings read alike, the source gives them in different places.

Experiments:
[1] = system: tetrabenazine-induced depression; assay: prevention of tetrabenazine-induced sedation and depression in mice (exploratory activity and ptosis); type: in vivo, Carworth CF1 S female mice; details: for ED50: Mus musculus, po; for ED50 Ptosis / ED50 Exploratory: 60 min
Description: A standard procedure for detecting and comparing the antidepressant activity of compounds in this series for which there is good correlation with human efficacy is the prevention of tetrabenazine-induced sedation and depression in mice. (Everett, "The Dopa Response Potentiation Test and Its Use in Screening for Antidepressant Drugs", pp. 164-167 in "Antidepressant Drugs" [Proceedings of the First International Symposium], S. Garattini and M. N. G. Dukes, eds., 1967.).
Groups of 10 Carworth CF1 S female mice, 18-21 g. each, were fasted 1.5 hours and were intubated with antagonist compounds at oral doses of 0, 5, 25, and 125 mg/kg or 0, 1, 3, 9, 27, and 81 mg/kg in 0.20 ml. of 1% Methocel (methylcellulose) 1.25% Tween 80. The mice were challenged 30 minutes later with tetrabenazine (as the methane-sulfonate), 32 mg/kg intraperitoneally (dissolved in 0.20 ml. 0.05M KCl at pH 2.0). One hour after antagonist (30 minutes after tetrabenazine), the mice were examined for signs of exploratory activity and ptosis (eyelid closure). Normal exploratory activity (relief from sedation) was recorded when a mouse lifted by the tail from a group of 10 in a testing box and placed on a stainless steel testing box lid (12.5" × 8" with 0.33" mesh) either turned its head horizontally 30° in both direction or moved to the edge of the screen within 10 seconds after being placed on the screen. Relief from ptosis was recorded when exactly 2 seconds after placing the mouse facing the observer, lid closure was less than 50% in both eyes.
For comparison, the marketed antidepressant Amitriptyline was also tested, and an ED50 (effective dose in 50% of the cases) was determined. The lower the ED50, the better the antidepressant.

[2] = system: monoamine oxidase (MAO); assay: tryptamine potentiation in mice (monoamine oxidase inhibition); type: in vivo
Description: (§1) An antidepressant which acts by inhibiting MAO is not acceptable.

[3] = system: hexabarbitol potentiation; assay: hexabarbitol potentiation in mice (sedative qualities); type: in vivo
Description: as §1

[4] = Table I, orally, 1 hour post-drug, tetrabenazine 32 mg/kg i.p. 30 min after drug, relief from ptosis
[5] = Table I, orally, 1 hour post-drug, tetrabenazine 32 mg/kg i.p. 30 min after drug, relief from sedation (exploratory activity)
[6] = Table II (formula II compounds), orally, 1 hour post-drug, relief from ptosis, read-out: ED50 Ptosis
[7] = Table II (formula II compounds), orally, 1 hour post-drug, relief from sedation (exploratory activity), read-out: ED50 Exploratory

Row | Structure (SMILES) | ED50 Ptosis [1, 4] [mg/kg] | ED50 Exploratory [1, 5] [mg/kg] | ED50 [1, 6] [mg/kg] | ED50 [1, 7] [mg/kg] | other results
1 | CN(C)CCC=C1c2ccccc2CCc2ccccc21 [Amitriptylene . HCl, reference compound] |  |  |  |  | ED50 ([1]; Table I, orally, 1 hour post-drug, tetrabenazine 32 mg/kg i.p. 30 min after drug, relief from ptosis, read-out: ED50 Ptosis): 1.5 mg/kg; ED50 ([1]; Table I, orally, 1 hour post-drug, tetrabenazine 32 mg/kg i.p. 30 min after drug, relief from sedation (exploratory activity), read-out: ED50 Exploratory): 3.7 mg/kg
2 | CN(C)CCOC12c3ccccc3C3C(c4ccccc41)N32 (stereo not drawn) [CH2 CH2 N(CH3)2 . Maleate, 2-[4b, 4c-Dihydro-8bH-azirino[2,1,3-cd]dibenzo[a,f]pyrrolizin-8b-yl)oxy]ethyl-N,N-dimethylamine Maleate] | 8 | 9 |  |  | 
3 | CN(C)CCOC12NC(Cc3ccccc31)c1ccccc12 (stereo not drawn) [CH2 CH2 N(CH3)2 H H, 10,11-Dihydro-5,10-imino-5-[2-(N,N-dimethylamino)-ethoxy]-5H-dibenzo[a,d]cycloheptene] |  |  | 15 | 15 | 
4 | NCCOC12c3ccccc3C3C(c4ccccc41)N32 (stereo not drawn) [CH2 CH2 NH2 . Tartate] | 2.7 | 3.3 |  |  | 
5 | CN(C)CCCOC12c3ccccc3C3C(c4ccccc41)N32 (stereo not drawn) [CH2 CH2 CH2 N(CH3)2, 3-[(4b, 4c-Dihydro-8bH-azirino[2,1,3-cd]dibenzo[a,f]-pyrrolizin-8b-yl)oxy]propyl-N,N-dimethylamine] |  |  |  |  | ED50 ([1]; 1 h, read-out: ED50 Exploratory, Table I, orally, 1 hour post-drug, tetrabenazine 32 mg/kg i.p. 30 min after drug, relief from sedation (exploratory activity)): 67 mg/kg; ED50 ([1]; 1 h, read-out: ED50 Ptosis, Table I, orally, 1 hour post-drug, tetrabenazine 32 mg/kg i.p. 30 min after drug, relief from ptosis): 56 mg/kg
6 | NCCOC12NC(c3ccccc31)C(Cl)c1ccccc12 (stereo not drawn) [CH2 CH2 NH2 H Cl, 10,11-Dihydro-5,10-imino-5-(2-aminoethoxy)-11-chloro-5H-dibenzo[a,d]cycloheptene] |  |  | 37 | 37 | 
7 | CN(C)CCOC12NC(c3ccccc31)C(Cl)c1ccccc12 (stereo not drawn) [CH2 CH2 N(CH3)2 H Cl, 10,11-Dihydro-5,10-imino-5-[2-(N,N-dimethylamino)-ethoxy]-11-chloro-5H-dibenzo[a,d]cycloheptene] |  |  | 15 | 25 | 
8 | CN(C)CCOC12c3ccccc3C3C(c4ccccc41)N32 (stereo not drawn) [CH2 CH2 N(CH3)2, 2-[(4b, 4c-Dihydro-8bH-azirino[2,1,3-cd]dibenzo[a,f]pyrrolizin-8b-yl)oxy]ethyl-N,N-dimethylamine] | 2 | 2 |  |  | monoamine oxidase (MAO) inhibition ([2]; implied by lack of tryptamine potentiation in mice): not a monoamine oxidase (MAO) inhibitor; potentiation of tryptamine ([2]; in mice): not to potentiate tryptamine in mice; sedative qualities ([3]; implied by hexabarbitol potentiation in mice, at high doses): sedative qualities at high doses; potentiation of hexabarbitol ([3]; in mice): potentiates hexabarbitol in mice
9 | NCCOC12c3ccccc3C3C(c4ccccc41)N32 (stereo not drawn) [CH2 CH2 NH2] | 1 | 2 |  |  | 
10 | NCCOC12c3ccccc3C3C(c4ccccc41)N32 (stereo not drawn) [CH2 CH2 NH2 . Maleate] | 10.3 | 11.8 |  |  | 
